Measurements from patent EP4640674A1, “CRYSTAL FORMS OF ETHOXIMOD, PREPARATION METHOD THEREFOR AND USE THEREOF” (Jiankuan (Suzhou) Biotechnology Co., Ltd, priority 2022, dated 2024).
Where “and” joins values, the source holds several entries; their conditions need not be identical. Equal entries are not always repeated. Entries after “also recorded” stand apart in the source; their conditions may differ.

What was measured:
Assay type in all cases: physicochemical
[1] = Dynamic solubility at 37 °C (HPLC; residual solid by XRPD)
Procedure: Samples of the crystal form A and the crystal form B of ethoximod were taken and prepared into saturated solutions at 37 °C in Fasted State Simulated Intestinal Fluid (FaSSIF, pH = 8.0), Fed State Simulated Intestinal Fluid (FeSSIF, pH = 5.0), Simulated Gastric Fluid (SGF, pH = 1.0), a hydrochloric acid aqueous solution (pH = 1.0), an acetic acid-sodium acetate buffer system (pH = 4.0), a phosphate buffer system (pH = 6.8) and water. After 1 h/2 h/4 h/24 h, filtration was performed to obtain solutions, and actual concentrations of the samples in the solutions were measured through high-performance liquid chromatography (HPLC) (diluting the filtrates as needed). Crystal forms of the solids before and after the experiment were characterized through XRPD to check whether phase transition had occurred. Table 4 Comparison of solubility of crystal form A and crystal form B

[2] = Microscopic morphology and particle size; settings: optical microscope, 40× objective lens; hydrochloride
Text: Samples of the crystal form A and the crystal form B of ethoximod were subjected to microscopic morphological researches. The morphology and particle sizes of the crystal form A and the crystal form B were observed under a 40× objective lens of an optical microscope. The crystal form A is irregular and plate-shaped with a raw material particle size of below 35 µm and a long/short diameter ratio of 1 to 2. The crystal form B aggregates and becomes spherical with a raw material particle size of below 20 µm.

[3] = Angle of repose test (flowability); settings: hydrochloride
Procedure: Powder properties of active pharmaceutical ingredients affect the flowability of the active pharmaceutical ingredients. The crystal form A and the crystal form B of ethoximod was subjected to angle of repose and Hausner ratio tests to compare the flowability of the crystal form A and the crystal form B of ethoximod. […] In this experiment, angles of repose of active pharmaceutical ingredients of the two crystal forms were measured through an injection method in combination with a residual cone method, and the flowability of the active pharmaceutical ingredients of the two crystal forms was analyzed. Specific operations are as follows: powders were injected into a center of a disc with a limited diameter, the injection was stopped until materials on an oblique side of a powder accumulation layer automatically flew out along an edge of the disc, a height (H) of a cone was measured, and the angle of repose was calculated according to the diameter (D = 2r) of the disc with tanQ = H/r.

[4] = Dynamic vapor sorption (hygroscopicity); settings: hydrochloride
Text: In the examples of the present application, the instrument used for the X-ray powder diffraction test is the D2 Phaser produced by Bruker. The instrument used for the differential scanning calorimetry test is the differential scanning calorimeter DSC 250 produced by TA Instruments. The instrument used for the thermogravimetric analysis is the thermogravimetric analyzer TGA 55 produced by TA Instruments. The instrument used for the FT-IR test is the Fourier infrared spectrometer ID1-summit produced by Thermo. The instrument used for the dynamic vapor sorption test is the DVS Intrinsic produced by Surface Measurement Systems (SMS). The instrument used for the microscopy is the microscope NJF-120A produced by Suzhou Nanguang Electronic Technology Co., Ltd.
Samples of the crystal form A and the crystal form B of ethoximod were taken for a dynamic vapor sorption test.

[5] = Equilibrium solubility in organic solvents at room temperature (HPLC; solid by XRPD); settings: equilibrium for 24 h; for solubility: hydrochloride
Procedure: The crystal form A and the crystal form B of ethoximod were prepared into solutions at room temperature with ethanol, acetone and ethyl acetate. After equilibrium for 24 h, filtration was performed to obtain saturated solutions, and contents of the samples in the saturated solutions were measured through high-performance liquid chromatography (HPLC) (diluting the filtrates as needed). Crystal forms of the solids before and after the experiment were characterized through XRPD to check whether phase transition had occurred.

[6] = Adhesion test in ziplock bag; settings: ziplock bag flipped at 5 rpm, 10 min in each direction; hydrochloride
Procedure: Each of the crystal form A and the crystal form B of ethoximod was taken and put into a ziplock bag with a fixed size. A seal was sealed, and the ziplock bag was flipped at a rotation speed of 5 rpm for 10 min. A direction was changed, and the ziplock bag continued to be flipped at a fixed rotation speed for 10 min. Raw materials were poured out from the bag, a mass of the remaining raw materials was weighed accurately, and an adhesion rate was calculated.

[7] = Solid-state stability on storage (crystal form by XRPD, purity); settings: for Crystal Form after storage / main purity after storage / maximum single impurity after storage: 30 days exposed
Procedure: Samples were taken before and after storage, and crystal forms were measured through XRPD. […] Table 3 Comparison of solid-state stability of crystal form A and crystal form B

[8] = FaSSIF (pH = 8.0), 37 °C, 1 h, hydrochloride
[9] = FaSSIF (pH = 8.0), 37 °C, 2 h, hydrochloride
[10] = FaSSIF (pH = 8.0), 37 °C, 4 h, hydrochloride
[11] = FaSSIF (pH = 8.0), 37 °C, 24 h, hydrochloride

crystal form of the solid [1, 8]: free alkali | solubility [1, 8]: 15 µg/mL | crystal form of the solid [1, 9]: free alkali | solubility [1, 9]: 10 µg/mL | crystal form of the solid [1, 10]: free alkali | solubility [1, 10]: 8 µg/mL | crystal form of the solid [1, 11]: free alkali | solubility [1, 11]: 21 µg/mL | solubility ([1]; FeSSIF (pH = 5.0), 37 °C, 1 h, hydrochloride): 1480 µg/mL | solubility ([1]; FeSSIF (pH = 5.0), 37 °C, 2 h, hydrochloride): 1630 µg/mL | solubility ([1]; FeSSIF (pH = 5.0), 37 °C, 4 h, hydrochloride): 1210 µg/mL | solubility ([1]; FeSSIF (pH = 5.0), 37 °C, 24 h, hydrochloride): 1670 µg/mL | solubility ([1]; SGF (pH = 1.0), 37 °C, 1 h, hydrochloride): 290 µg/mL | solubility ([1]; SGF (pH = 1.0), 37 °C, 2 h, hydrochloride): 280 µg/mL | solubility ([1]; SGF (pH = 1.0), 37 °C, 4 h, hydrochloride): 320 µg/mL | solubility ([1]; SGF (pH = 1.0), 37 °C, 24 h, hydrochloride): 360 µg/mL | solubility ([1]; acetic acid-sodium acetate buffer pH = 4.0, 37 °C, 1 h, hydrochloride): 1450 µg/mL | solubility ([1]; acetic acid-sodium acetate buffer pH = 4.0, 37 °C, 2 h, hydrochloride): 1780 µg/mL | solubility ([1]; acetic acid-sodium acetate buffer pH = 4.0, 37 °C, 4 h, hydrochloride): 1930 µg/mL | solubility ([1]; acetic acid-sodium acetate buffer pH = 4.0, 37 °C, 24 h, hydrochloride): 2610 µg/mL | solubility ([1]; hydrochloric acid aqueous solution pH = 1.0, 37 °C, 1 h, hydrochloride): 300 µg/mL | solubility ([1]; hydrochloric acid aqueous solution pH = 1.0, 37 °C, 2 h, hydrochloride): 410 µg/mL | solubility ([1]; hydrochloric acid aqueous solution pH = 1.0, 37 °C, 4 h, hydrochloride): 320 µg/mL | solubility ([1]; hydrochloric acid aqueous solution pH = 1.0, 37 °C, 24 h, hydrochloride): 360 µg/mL | crystal form of the solid ([1]; phosphate buffer pH = 6.8, 37 °C, 1 h): free alkali | crystal form of the solid ([1]; phosphate buffer pH = 6.8, 37 °C, 2 h): free alkali | solubility ([1]; phosphate buffer pH = 6.8, 37 °C, 2 h, hydrochloride): lower than limit of detection | crystal form of the solid ([1]; phosphate buffer pH = 6.8, 37 °C, 4 h): free alkali | solubility ([1]; phosphate buffer pH = 6.8, 37 °C, 4 h, hydrochloride): lower than limit of detection | crystal form of the solid ([1]; phosphate buffer pH = 6.8, 37 °C, 24 h): free alkali | solubility ([1]; phosphate buffer pH = 6.8, 37 °C, 24 h, hydrochloride): 1.9 µg/mL | solubility at 1 h ([1]; phosphate buffer, 37 °C, pH 6.8, aqueous buffer, thermodynamic from solid, phosphate buffer pH = 6.8, 37 °C, 1 h): 0.1 µg/mL | solubility ([1]; water, 37 °C, 1 h, hydrochloride): 1690 µg/mL | solubility ([1]; water, 37 °C, 2 h, hydrochloride): 1650 µg/mL | solubility ([1]; water, 37 °C, 4 h, hydrochloride): 2500 µg/mL | solubility ([1]; water, 37 °C, 24 h, hydrochloride): 2160 µg/mL | raw material particle size [2]: below 20 µm | Average of Angles of Repose [3]: 52.3 ° | Angle of Repose ([3]; single determination): 50.2 ° and 54.5 ° | hygroscopic weight gain (vapor sorption) ([4]; 25 °C/90% RH): 4.6% | solubility ([5]; acetone): 20 µg/mL | solid-state crystal form ([5]; ethanol): C, with relatively poor crystallinity | solubility ([5]; ethanol): 5050 µg/mL | solubility ([5]; ethyl acetate): 10 µg/mL | Adhesion Amount Per Unit Area [6]: 0.001 g/m^2 | Weight of API Adsorbed in Bag [6]: 0.0735 g | change in main purity ([7]; 40 °C/75% RH, 60 °C and 92.5% RH for 30 days): no significant change | time the crystal form is stable (XRPD) ([7]; 60 °C and light): at least 30 days | Crystal Form after storage ([7]; At 40 °C/75% RH, hydrochloride): crystal form C | main purity after storage ([7]; At 40 °C/75% RH, hydrochloride): 98.82 A% | maximum single impurity after storage ([7]; At 40 °C/75% RH, hydrochloride): maximum single impurity: 0.34 A% | Crystal Form after storage ([7]; At 60 °C, hydrochloride): crystal form B | main purity after storage ([7]; At 60 °C, hydrochloride): 98.61 A% | maximum single impurity after storage ([7]; At 60 °C, hydrochloride): maximum single impurity: 0.36 A% | main purity after storage ([7]; At 92.5% RH, hydrochloride): 98.83 A% | maximum single impurity after storage ([7]; At 92.5% RH, hydrochloride): maximum single impurity: 0.36 A% | Crystal Form after storage ([7]; In light, hydrochloride): crystal form B | main purity after storage ([7]; In light, hydrochloride): 91.81 A% | maximum single impurity after storage ([7]; In light, hydrochloride): maximum single impurity: 1.57 A% | main purity ([7]; before storage, hydrochloride): crystal form B main purity: 98.85 A% | maximum single impurity ([7]; before storage, hydrochloride): maximum single impurity: 0.33 A% | change in main purity ([7]; light for 30 days, hydrochloride): decreased to a certain extent
Structure (SMILES): CCc1nc(-c2ccc(-c3ccc(CCC(N)(CO)CO)cc3)cc2)co1.Cl [crystal form B, 2-amino-2-{2-(4'-(2-ethyloxazol-4-yl)-[1,1'-biphenyl]-4-yl)ethyl}-1,3-propylene glycol hydrochloride]
hygroscopicity ([4]; DVS, 90% RH): with hygroscopicity; also recorded: has hygroscopicity | crystal form after the dynamic vapor sorption test (XRPD) ([4]; after DVS test): crystal transformed into the crystal form C; also recorded: crystal transformed into a crystal form C | Crystal Form after storage ([7]; At 92.5% RH, hydrochloride): crystal transformed into the crystal form C | crystal form after storage (XRPD) ([7]; placed for 5 days under 92.5% RH and 45 °C/75% RH): crystal transformed into the crystal form C
